Assay results: US11555202B2, “Elite event EE-GM5 and methods and kits for identifying such event in biological samples” (priority 2016, dated 2023)

Test system: soybean plants containing event EE-GM5
Experiment: HPPD inhibitor herbicide tolerance field trials on plants with EE-GM5 (maximum phytotoxicity)
Format: in vivo, soybean (Glycine max)
Details: for tolerance of plants with EE-GM5 to the herbicide: field, different locations over 2 years, applied pre-emergence or post-emergence
Description: Tolerance of plants comprising EE-GM5 to HPPD inhibitor herbicides was tested at different locations in the field over 2 years. […] All post-emergence treatments were at the V2-V3 stage, with adjuvants crop oil concentrate and ammonium sulfate added to increase herbicide activity.
The “maximum phytotoxicity” as used herein is the highest phytotoxicity rating recorded at any observation during the duration of a trial (with 3 to 4 observations per trial). In existing weed control applications, a normal (1×) dose for isoxaflutole (IFT) in pre- or post-emergence application and for MST in post-emergence application is 105 gr/ha, and a normal (1×) dose for mesotrione in pre-emergence application is 210 gr/ha.
Also, in several field trials across 2 years, soybean plants with event EE-GM5 had good tolerance towards experimental HPPD inhibitor compound 2-methyl-N-(5-methyl-1,3,4-oxadiazol-2-yl)-3-(methylsulfonyl)-4-(trifluoromethyl)benzamide (U.S. Pat. No. 9,101,141) when applied pre-emergence at 400 gr ai/ha or post-emergence at 200 gr ai/ha, respectively (the average maximum phytotoxicity value for each treatment was below 20%). […] All post-emergence treatments were at the V2-V3 stage, with adjuvants crop oil concentrate and ammonium sulfate added to increase herbicide activity.
Also, plants with EE-GM5 when treated post-emergent (V2-V3) with topramezone at 36 g ai/ha (+COC and AMS) in 2 field trials in the US gave an average maximum phytotoxicity of 11%, showing EE-GM5 also confers good tolerance to this HPPD inhibitor.

CSc1c(C(F)(F)F)ccc(C(=O)Nc2nnnn2C)c1Cl [2-chloro-3-(methylsulfanyl)-N-(1-methyl-1H-tetrazol-5-yl)-4-(trifluoromethyl)benzamide]
average maximum phytotoxicity (3rd year, EE-GM5 in Thorne background, 150 g/ha post-emergence, 3 field trial locations): 13.3% | average maximum phytotoxicity (several field trials across 2 years, post-emergence (V2-V3) at 100-150 gr ai/ha): 20%

CS(=O)(=O)c1cc(C(F)(F)F)ccc1C(=O)c1cnoc1C1CC1 [isoxaflutole, (5-cyclopropyl-4-isoxazolyl)[2-(methylsulfonyl)-4-(trifluoromethyl)phenyl]methanone]
average maximum phytotoxicity (3rd year, EE-GM5 in Thorne background, post-emergence V2-V3 stage at 210 g/ha, 4 locations): 10.9% | maximum phytotoxicity (3rd year, EE-GM5 in Thorne background, pre-emergence at 410 g/ha, one field trial location): 9% | tolerance of plants with EE-GM5 to the herbicide: commercially relevant tolerance

CS(=O)(=O)c1ccc(C(=O)C2C(=O)CCCC2=O)c([N+](=O)[O-])c1 [mesotrione, 2-[4-(Methylsulfonyl)-2-nitrobenzoyl]cyclohexane-1,3-dione]
tolerance of plants with EE-GM5 to the herbicide: commercially relevant tolerance

Cc1nnc(NC(=O)c2ccc(C(F)(F)F)c(S(C)(=O)=O)c2C)o1 [2-methyl-N-(5-methyl-1,3,4-oxadiazol-2-yl)-3-(methylsulfonyl)-4-(trifluoromethyl)benzamide]
average maximum phytotoxicity value (several field trials across 2 years, post-emergence (V2-V3) at 200 gr ai/ha): below 20% | average maximum phytotoxicity value (several field trials across 2 years, pre-emergence at 400 gr ai/ha): below 20%

Cc1c(C(=O)c2cnn(C)c2O)ccc(S(C)(=O)=O)c1C1=NOCC1 [topramezone, [3-(4,5-dihydro-3-isoxazolyl)-2-methyl-4-(methylsulfonyl)phenyl](5-hydroxy-1-methyl-1H-pyrazol-4-yl)methanone]
average maximum phytotoxicity (post-emergent (V2-V3) at 36 g ai/ha (+COC and AMS), 2 field trials in the US): 11%
